This is an account of results in patent US20120220562A1, “Anti-Viral Compounds” (ABBOTT LABAORATORIES, priority 2011, published 2012).

In this test the test system is HCV 1b-Con1 replicon. Put plainly: HCV 1b-Con1 replicon assay in the presence of 5% FBS. The test is classed as cell-based. Conditions: Hepatitis C virus. On the technique in general: Replicon systems follow genome replication, usually without infectious particles.
`COC(=O)N[C@H](C(=O)N1CCC[C@H]1c1nc2cc([C@H]3CC[C@H](c4ccc5[nH]c([C@@H]6CCCN6C(=O)[C@@H](NC(=O)OC)C(C)C)nc5c4)N3c3ccc(Cl)c(F)c3)ccc2[nH]1)C(C)C` [Example 2.2, methyl {(2S)-1-[(2S)-2-{5-[(2R,5R)-1-(4-chloro-3-fluorophenyl)-5-{2-[(2S)-1-{(2S)-2-[(methoxycarbonyl)amino]-3-methylbutanoyl}pyrrolidin-2-yl]-1H-benzimidazol-5-yl}pyrrolidin-2-yl]-1H-benzimidazol-2-yl}pyrrolidin-1-yl]-3-methyl-1-oxobutan-2-yl}carbamate]: the EC50 – broadly, the concentration giving half of the maximal effect – was less than 0.1 nM. Regarding `COC(=O)N[C@H](C(=O)N1CCC[C@H]1c1nc2cc([C@H]3CC[C@H](c4cc5nc([C@@H]6CCCN6C(=O)[C@@H](NC(=O)OC)C(C)C)[nH]c5cc4F)N3c3cc(F)c(N4CCC5(CCCCC5)CC4)c(F)c3)c(F)cc2[nH]1)C(C)C` [Example 4.53, methyl {(2S)-1-[(2S)-2-{5-[(2R,5R)-1-[4-(3-azaspiro[5.5]undec-3-yl)-3,5-difluorophenyl]-5-{6-fluoro-2-[(2S)-1-{(2S)-2-[(methoxycarbonyl)amino]-3-methylbutanoyl}pyrrolidin-2-yl]-1H-benzimidazol-5-yl}pyrrolidin-2-yl]-6-fluoro-1H-benzimidazol-2-yl}pyrrolidin-1-yl]-3-methyl-1-oxobutan-2-yl}carbamate], the EC50 is less than 0.1 nM. For `COC(=O)N[C@H](C(=O)N1CCC[C@H]1c1nc2cc(C3CCC(c4cc5nc([C@@H]6CCCN6C(=O)[C@@H](NC(=O)OC)C(C)C)[nH]c5cc4F)N3c3cc(F)c(N4C[C@@H](C)O[C@@H](C)C4)c(F)c3)c(F)cc2[nH]1)C(C)C` (some centres unmarked) [Example 4.51], the EC50 is less than 0.1 nM. The value for `COCCOc1ccc(N2[C@@H](c3ccc4[nH]c([C@@H]5CCCN5C(=O)[C@@H](NC(=O)OC)C(C)C)nc4c3)CC[C@@H]2c2ccc3[nH]c([C@@H]4CCCN4C(=O)[C@@H](NC(=O)OC)C(C)C)nc3c2)cc1` [Example 3.3, methyl {(2S)-1-[(2S)-2-(5-{(2R,5R)-5-{2-[(2S)-1-{(2S)-2-[(methoxycarbonyl)amino]-3-methylbutanoyl}pyrrolidin-2-yl]-1H-benzimidazol-5-yl}-1-[4-(2-methoxyethoxy)phenyl]pyrrolidin-2-yl}-1H-benzimidazol-2-yl)pyrrolidin-1-yl]-3-methyl-1-oxobutan-2-yl}carbamate] was 0.1 to 1 nM; that for `COC(=O)N[C@H](C(=O)N1CCC[C@H]1c1nc2cc(F)c([C@H]3CC[C@H](c4cc5[nH]c([C@@H]6CCCN6C(=O)[C@@H](NC(=O)OC)C(C)C)nc5cc4F)N3c3cc(F)c(N4CCC(Cc5ccccc5)CC4)c(F)c3)cc2[nH]1)C(C)C` [Example 4.44, methyl {(2S)-1-[(2S)-2-{6-[(2R,5R)-1-[4-(4-benzylpiperidin-1-yl)-3,5-difluorophenyl]-5-{5-fluoro-2-[(2S)-1-{(2S)-2-[(methoxycarbonyl)amino]-3-methylbutanoyl}pyrrolidin-2-yl]-1H-benzimidazol-6-yl}pyrrolidin-2-yl]-5-fluoro-1H-benzimidazol-2-yl}pyrrolidin-1-yl]-3-methyl-1-oxobutan-2-yl}carbamate] was less than 0.1 nM. Consider `COC(=O)N[C@H](C(=O)N1CCC[C@H]1c1nc2cc([C@H]3CC[C@H](c4ccc5nc([C@@H]6CCCN6C(=O)[C@@H](NC(=O)OC)C(C)C)[nH]c5c4)N3c3ccc(F)c(F)c3)ccc2[nH]1)C(C)C` [Example 4.9, methyl {(2S)-1-[(2S)-2-{5-[(2R,5R)-1-(3,4-difluorophenyl)-5-{2-[(2S)-1-{(2S)-2-[(methoxycarbonyl)amino]-3-methylbutanoyl}pyrrolidin-2-yl]-1H-benzimidazol-6-yl}pyrrolidin-2-yl]-1H-benzimidazol-2-yl}pyrrolidin-1-yl]-3-methyl-1-oxobutan-2-yl}carbamate], for which the EC50 was less than 0.1 nM. With `COC(=O)N[C@H](C(=O)N1CCC[C@H]1c1nc2cc([C@H]3CC[C@H](c4ccc5[nH]c([C@@H]6CCCN6C(=O)[C@@H](NC(=O)OC)C(C)C)nc5c4)N3c3ccc(Cl)cc3)ccc2[nH]1)C(C)C` [Example 3.4, methyl {(2S)-1-[(2S)-2-{5-[(2R,5R)-1-(4-chlorophenyl)-5-{2-[(2S)-1-{(2S)-2-[(methoxycarbonyl)amino]-3-methylbutanoyl}pyrrolidin-2-yl]-1H-benzimidazol-5-yl}pyrrolidin-2-yl]-1H-benzimidazol-2-yl}pyrrolidin-1-yl]-3-methyl-1-oxobutan-2-yl}carbamate], the EC50 is less than 0.1 nM. With `COC(=O)N[C@H](C(=O)N1CCC[C@H]1c1nc2cc([C@H]3CC[C@H](c4ccc5[nH]c([C@@H]6CCCN6C(=O)[C@@H](NC(=O)OC)C(C)C)nc5c4)N3c3cc(F)c(N4CC5CCC4CC5)c(F)c3)ccc2[nH]1)C(C)C` [Example 4.21, methyl {(2S)-1-[(2S)-2-{5-[(2R,5R)-1-[4-(2-azabicyclo[2.2.2]oct-2-yl)-3,5-difluorophenyl]-5-{2-[(2S)-1-{(2S)-2-[(methoxycarbonyl)amino]-3-methylbutanoyl}pyrrolidin-2-yl]-1H-benzimidazol-5-yl}pyrrolidin-2-yl]-1H-benzimidazol-2-yl}pyrrolidin-1-yl]-3-methyl-1-oxobutan-2-yl}carbamate], the EC50 was less than 0.1 nM.

With `COC(=O)N[C@H](C(=O)N1CCC[C@H]1c1nc2cc([C@H]3CC[C@H](c4ccc5[nH]c([C@@H]6CCCN6C(=O)[C@@H](NC(=O)OC)C(C)C)nc5c4)N3c3cc(F)c(N4CCCCC4)c(F)c3F)ccc2[nH]1)C(C)C` [Example 4.7, methyl {(2S)-1-[(2S)-2-(5-{(2R,5R)-5-{2-[(2S)-1-{(2S)-2-[(methoxycarbonyl)amino]-3-methylbutanoyl}pyrrolidin-2-yl]-1H-benzimidazol-5-yl}-1-[2,3,5-trifluoro-4-(piperidin-1-yl)phenyl]pyrrolidin-2-yl}-1H-benzimidazol-2-yl)pyrrolidin-1-yl]-3-methyl-1-oxobutan-2-yl}carbamate], the EC50 is less than 0.1 nM. With `COC(=O)N[C@H](C(=O)N1CCC[C@H]1c1nc2cc([C@H]3CC[C@H](c4ccc5[nH]c([C@@H]6CCCN6C(=O)[C@@H](NC(=O)OC)C(C)C)nc5c4)N3c3cc(F)c(N4CCC5(CCCCC5)CC4)c(F)c3)ccc2[nH]1)C(C)C` [Example 5.12, methyl {(2S)-1-[(2S)-2-{5-[(2R,5R)-1-[4-(3-azaspiro[5.5]undec-3-yl)-3,5-difluorophenyl]-5-{2-[(2S)-1-{(2S)-2-[(methoxycarbonyl)amino]-3-methylbutanoyl}pyrrolidin-2-yl]-1H-benzimidazol-5-yl}pyrrolidin-2-yl]-1H-benzimidazol-2-yl}pyrrolidin-1-yl]-3-methyl-1-oxobutan-2-yl}carbamate], the EC50 is less than 0.1 nM.

Turning to `COC(=O)N[C@H](C(=O)N1CCC[C@H]1c1nc2cc(F)c([C@H]3CC[C@H](c4cc5[nH]c([C@@H]6CCCN6C(=O)[C@@H](NC(=O)OC)C6CCCC6)nc5cc4F)N3c3cc(F)c(N4CCN(c5ccc(C(F)(F)F)cc5)CC4)c(F)c3)cc2[nH]1)C1CCCC1` [Example 4.45, dimethyl ([(2R,5R)-1-(3,5-difluoro-4-{4-[4-(trifluoromethyl)phenyl]piperazin-1-yl}phenyl)pyrrolidine-2,5-diyl]bis{(5-fluoro-1H-benzimidazole-6,2-diyl)(2S)pyrrolidine-2,1-diyl[(1S)-1-cyclopentyl-2-oxoethane-2,1-diyl]})bis carbamate], the EC50 was less than 0.1 nM.
